Test results: US9725442B2, “Heterocyclic derivative having PGD2 receptor antagonist activity” (Shionogi & Co., Ltd., priority 2011, dated 2017)
Like-named read-outs stand apart in the source and are kept apart here.

Key:
[1] = target: DP receptor (Homo sapiens (Human), UniProt Q13258); test: DP inhibitory activity in human platelets (PGD2-induced cAMP increase in platelet rich plasma, HTRF); type: cell-based; details: IC50 of PGD2 (300 nM)-induced cAMP increase, read-out: PRP
Description: Thirty milliliter of blood was drown from healthy human into a syringe preloaded with 1/9 volume of 3.8% citrate sodium. The blood was centrifuged with 180 g for 10 min at room temperature and the upper plasma layer was collected as platelet rich plasma (PRP). The PRP was transferred to plate and treated with 3-isobutyl-1-methylxanthin (IBMX; […]) for 5 min. Then the compounds of the present invention were added to the plate and after 10 min, 300 nM of PGD2 was added. The reaction was stopped with 1 mmol/l hydrogenchlolide after 2 min of PGD2 addition, and platelet was lysed by adding 12% Triton X-100. The concentration of cAMP in the supernatant of the platelet lysate was quantified using homogenous time resolved fluorescence (HTRF). Inhibition ratio was defined by cAMP increase with and without compound, and […] for each compound was calculated from inhibitory curve.

[2] = target: Human DP1 receptor (Homo sapiens (Human), UniProt Q13258); test: Human DP1 inhibitory activity in DP1-expressing cell (PGD2-induced cAMP); type: cell-based
Description: Compounds were categorized as AA (cAMP is less than 100 nM) and A (cAMP is more than 100 nM and less than 5000 nM) as shown in Table 99 and 100.

[3] = target: T1, CRTH2 (Homo sapiens (Human), UniProt Q9Y5Y4); test: CRTH2 receptor binding inhibitory activity ([3H]-PGD2 displacement, membranes of CRTH2-expressing K562 cell); details: [3H]-PGD2 displacement, membrane of CRTH2-expressing K562 cell, read-out: Ki
Outline: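 Incubation ran 60 min at room temperature using 20 μg/well membrane from CRTH2-expressing K562 cells in pH 7.4 Tris/HCl (50 mM) with 10 mM MgCl2.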

[4] = target: T1, CRTH2; test: CRTH2 inhibitory activity in CRTH2-expressing cells (PGD2-induced intracellular calcium increase, K562); type: cell-based; details: 200 nM PGD2, read-out: IC50, inhibition of intracellular calcium concentration increase induced by PGD2
Description: CRTH2 inhibitory activities of compounds were determined as inhibition activity of intra-cellular calcium concentration increase induced by PGD2 in CRTH2-expressing cells.
CRTH2-expressing K562 cells were suspended at concentration of 2×10^6 cells/ml in buffer (10 mM HEPES, pH 7.4, 0.1% Bovine serum albumin). Cells were incubated with […] (4 μM) for 30 min at room temperature. Cells were washed, resuspended and mixed with various concentration of compounds of the present invention. After 2 min, cells were treated with 200 nM of PGD2. Then intracellular calcium concentration was measured using intracellular ion analyzer (FDSS3000). Inhibition ratio was defined by comparing intracellular calcium concentration increase with and without compound, and IC50 for each compound was calculated from inhibitory curve.

[5] = target: T1, CRTH2; test: CRTH2 inhibitory activity in human eosinophil (PGD2 induced eosinophil shape change); type: cell-based; details: human peripheral blood, 40 nM PGD2, forward scatter; read-out: IC50, inhibition of PGD2 induced eosinophil shape change
Description: CRTH2 inhibitory activity in human eosinophil was determined as inhibitory activity of PGD2 induced eosinophil shape change.
Human peripheral blood was mixed with compounds of the present invention at 37° C. After 5 min, the blood was treated with 40 nM of PGD2 for 10 min and fixed. The blood was hemolyzed and centrifuged. Blood cells were resuspended in PBS and measured forward scatter (FS) using flow cytometer (FACSAria). Inhibition ratio was defined by comparing FS with and without compound, and IC50 for each compound was calculated from inhibitory curve.

[6] = Solubility test (1% DMSO addition, artificial intestinal juice pH 6.8); type: physicochemical; details: fassgf or other biorelevant, kinetic from dmso stock, artificial intestinal juice pH 6.8, 16 hours at 25° C.
Description: A 10 mmol/L solution of the compound of the present invention is prepared with DMSO, and 6 μL of the compound solution is added to 594 μL of an artificial intestinal juice (water and 118 mL of 0.2 mol/L NaOH reagent are added to 250 mL of 0.2 mol/L potassium dihydrogen phosphate reagent to reach 1000 mL) with a pH of 6.8. The mixture is left standing for 16 hours at 25° C., and the mixture is vacuum-filtered. The filtrate is two-fold diluted with methanol/water=1/1 (V/V), and the compound concentration in the filtrate is measured with HPLC or LC/MS/MS by the absolute calibration method.

[7] = Metabolism stability test; type: in vitro ADME; details: human liver microsomes, 30 minutes, 37° C., NADPH, 0.5 μmol/L of the compound
Description: Using a commercially available pooled human hepatic microsomes, a compound of the present invention was reacted for a constant time, a remaining rate was calculated by comparing a reacted sample and an unreacted sample, thereby, a degree of metabolism in liver was assessed.
A reaction was performed (oxidative reaction) at 37° C. for 0 minute or 30 minutes in the presence of 1 mmol/L NADPH in 0.2 mL of a buffer (50 mmol/L Tris-HCl pH 7.4, 150 mmol/L potassium chloride, 10 mmol/L magnesium chloride) containing 0.5 mg protein/mL of human liver microsomes. After the reaction, 50 μL of the reaction mixture was added to 100 μL of a methanol/acetonitrile=1/1 (v/v), mixed and centrifuged at 3000 rpm for 15 minutes. The compound of the present invention in the supernatant was quantified by LC/MS/MS, and a remaining amount of the compound of the present invention after the reaction was calculated, letting a compound amount at 0 minute reaction time to be 100%. Glucuronidation reaction was in the presence of 5 mM UDP-glucuronic acid in place of NADPH, followed by similar operations.

[8] = target: CYP1A2 (Homo sapiens (Human), UniProt P05177); test: CYP inhibition test, 7-ethoxyresorufin O-deethylation; type: in vitro ADME; details: pooled human hepatic microsome, 0.5 μmol/L ethoxyresorufin
From the text: (§1) Using commercially available pooled human hepatic microsome, and employing, as markers, 7-ethoxyresorufin O-deethylation (CYP1A2), tolbutamide methyl-hydroxylation (CYP2C9), mephenyloin 4′-hydroxylation (CYP2C19), dextromethorphan O-demethylation (CYP2D6), and terfenedine hydroxylation as typical substrate metabolism reactions of human main five CYP enzyme forms (CYP1A2, 2C9, 2C19, 2D6, 3A4), an inhibitory degree of each metabolite production amount by a compound of the present compound was assessed.
(§2) The reaction conditions were as follows: substrate, 0.5 μmol/L ethoxyresorufin (CYP1A2), 100 μmol/L tolbutamide (CYP2C9), 50 μmol/L S-mephenyloin (CYP2C19), 5 μmol/L dextromethorphan (CYP2D6), 1 μmol/L terfenedine (CYP3A4); reaction time, 15 minutes; reaction temperature, 37° C.; enzyme, pooled human hepatic microsome 0.2 mg protein/mL; concentration of a compound of the present invention, 1, 5, 10, 20 μmol/L (four points).
(§3) Each five kinds of substrates, human hepatic microsome, or a compound of the present invention in 50 mM Hepes buffer as a reaction mixture was added to a 96-well plate at the composition as described above, NADPH, as a cofactor was added to initiate metabolism reactions as markers and. After the incubation at 37° C. for 15 minutes, a methanol/acetonitrile=1/1 (v/v) solution was added to stop the reaction. After the centrifugation at 3000 rpm for 15 minutes, resorufin (CYP1A2 metabolite) in the supernatant was quantified by a fluorescent multilabel counter and tolbutamide hydroxide (CYP2C9 metabolite), mephenyloin 4′ hydroxide (CYP2C19 metabolite), dextrorphan (CYP2D6 metabolite), and terfenadine alcohol (CYP3A4 metabolite) were quantified by LC/MS/MS.

[9] = target: CYP2C9 (Homo sapiens (Human), UniProt P11712); test: CYP inhibition test, tolbutamide methyl-hydroxylation; type: in vitro ADME; details: pooled human hepatic microsome, 100 μmol/L tolbutamide
From the text: as §1, §2, §3

[10] = target: CYP2C19 (Homo sapiens (Human), UniProt P33261); test: CYP inhibition test, mephenyloin 4'-hydroxylation; type: in vitro ADME; details: pooled human hepatic microsome, 50 μmol/L S-mephenyloin
From the text: as §1, §2, §3

[11] = target: CYP2D6 (Homo sapiens (Human), UniProt P10635); test: CYP inhibition test, dextromethorphan O-demethylation; type: in vitro ADME; details: pooled human hepatic microsome, 5 μmol/L dextromethorphan
From the text: as §1, §2, §3

[12] = target: CYP3A4 (Homo sapiens (Human), UniProt P08684); test: CYP inhibition test, terfenedine hydroxylation; type: in vitro ADME; details: pooled human hepatic microsome, 1 μmol/L terfenedine
From the text: as §1, §2, §3

[13] = target: CYP3A4 enzyme expressed in Escherichia coli (Homo sapiens (Human), UniProt P08684); test: CYP3A4 fluorescent MBI test; type: in vitro ADME; details: pre-reaction time 0 or 30 minutes, substrate 7-BFC; read-out: CYP3A4 MBI, difference between IC50 values with and without preincubation
Description: The CYP3A4 fluorescent MBI test is a test of investigating enhancement of CYP3A4 inhibition of a compound by a metabolism reaction, and the test was performed using, as CYP3A4 enzyme expressed in Escherichia coli and employing, as an index, a reaction in which 7-benzyloxytrifluoromethylcoumarin (7-BFC) is debenzylated by the CYP3A4 enzyme to produce a metabolite, 7-hydroxytrifluoromethylcoumarin (HFC) emitting fluorescent light.
The reaction conditions were as follows: substrate, 5.6 μmol/L 7-BFC; pre-reaction time, 0 or 30 minutes; reaction time, 15 minutes; reaction temperature, 25° C. (room temperature); CYP3A4 content (expressed in Escherichia coli), at pre-reaction […], at reaction […] (at 10-fold dilution); concentration of a compound of the present, 0.625, 1.25, 2.5, 5, 10, 20 μmol/L (six points).
An enzyme in a K-Pi buffer (pH 7.4) and a compound solution of the present invention as a pre-reaction mixture were added to a 96-well plate at the composition of the pre-reaction, a part of it was transferred to another 96-well plate so that it was 1/10 diluted by a substrate in a K-Pi buffer, NADPH as a co-factor was added to initiate a reaction as an index (without preincubation) and, after a predetermined time of a reaction, acetonitrile/0.5 mol/L Tris(trishydroxyaminomethane)=4/1 (V/V) was added to stop the reaction. In addition, NADPH was added to a remaining preincubation solution to initiate a preincubation (with preincubation) and, after a predetermined time of a preincubation, a part was transferred to another plate so that it was 1/10 diluted with a substrate and a K-Pi buffer to initiate a reaction as an index. After a predetermined time of a reaction, acetonitrile/0.5 mol/L Tris(trishydroxyaminomethane)=4/1 (V/V) was added to stop the reaction. For the plate on which each index reaction had been performed, a fluorescent value of 7-HFC which is a metabolite was measured with a fluorescent plate reader. (Ex=420 nm, Em=535 nm).

[14] = IC50 of PGD2 (60 nM)-induced cAMP increase, human DP1 receptor expressing Jurkut cell
[15] = category of cAMP IC50, human DP1 receptor expressing Jurkut cell
[16] = CRTH2 receptor binding, categorized AAAA/AAA

T1 sequence (Q9Y5Y4 whole entry): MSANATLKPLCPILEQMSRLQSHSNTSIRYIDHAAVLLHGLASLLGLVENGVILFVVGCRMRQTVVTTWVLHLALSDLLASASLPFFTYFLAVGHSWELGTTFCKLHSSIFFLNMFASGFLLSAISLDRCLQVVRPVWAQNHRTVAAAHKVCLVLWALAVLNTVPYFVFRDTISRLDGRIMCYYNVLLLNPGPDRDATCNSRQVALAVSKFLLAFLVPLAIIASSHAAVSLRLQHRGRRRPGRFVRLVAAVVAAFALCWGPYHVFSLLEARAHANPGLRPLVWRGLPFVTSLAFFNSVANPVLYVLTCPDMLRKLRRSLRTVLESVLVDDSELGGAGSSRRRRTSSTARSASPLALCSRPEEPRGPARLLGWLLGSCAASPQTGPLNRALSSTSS
Human DP1 receptor, sequence (Q13258 whole entry): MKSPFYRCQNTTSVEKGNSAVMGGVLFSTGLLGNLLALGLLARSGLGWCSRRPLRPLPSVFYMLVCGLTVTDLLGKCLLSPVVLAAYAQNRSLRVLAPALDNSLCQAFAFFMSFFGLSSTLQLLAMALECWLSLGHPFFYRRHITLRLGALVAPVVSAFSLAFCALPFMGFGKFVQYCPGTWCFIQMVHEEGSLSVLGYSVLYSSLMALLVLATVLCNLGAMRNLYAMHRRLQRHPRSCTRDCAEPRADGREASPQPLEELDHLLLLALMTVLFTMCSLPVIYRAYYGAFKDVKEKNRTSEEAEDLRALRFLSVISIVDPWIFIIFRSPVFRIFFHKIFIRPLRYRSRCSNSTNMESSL
CYP2C9, sequence (P11712 whole entry): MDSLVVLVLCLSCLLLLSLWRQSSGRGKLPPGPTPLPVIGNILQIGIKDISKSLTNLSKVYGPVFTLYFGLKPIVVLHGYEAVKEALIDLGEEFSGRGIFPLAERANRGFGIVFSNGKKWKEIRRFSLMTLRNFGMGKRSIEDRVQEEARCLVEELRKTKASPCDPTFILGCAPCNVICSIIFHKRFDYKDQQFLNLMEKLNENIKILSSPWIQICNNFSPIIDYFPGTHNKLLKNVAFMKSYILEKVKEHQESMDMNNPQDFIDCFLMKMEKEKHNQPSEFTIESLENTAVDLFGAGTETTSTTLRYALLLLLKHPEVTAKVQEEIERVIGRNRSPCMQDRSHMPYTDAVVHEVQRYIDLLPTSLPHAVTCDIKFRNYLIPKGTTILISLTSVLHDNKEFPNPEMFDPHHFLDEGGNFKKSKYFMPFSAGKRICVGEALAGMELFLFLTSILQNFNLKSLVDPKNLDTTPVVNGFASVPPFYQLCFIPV
DP receptor, sequence (Q13258 whole entry): as the sequence (Q13258 whole entry) above
CYP2D6, sequence (P10635 whole entry): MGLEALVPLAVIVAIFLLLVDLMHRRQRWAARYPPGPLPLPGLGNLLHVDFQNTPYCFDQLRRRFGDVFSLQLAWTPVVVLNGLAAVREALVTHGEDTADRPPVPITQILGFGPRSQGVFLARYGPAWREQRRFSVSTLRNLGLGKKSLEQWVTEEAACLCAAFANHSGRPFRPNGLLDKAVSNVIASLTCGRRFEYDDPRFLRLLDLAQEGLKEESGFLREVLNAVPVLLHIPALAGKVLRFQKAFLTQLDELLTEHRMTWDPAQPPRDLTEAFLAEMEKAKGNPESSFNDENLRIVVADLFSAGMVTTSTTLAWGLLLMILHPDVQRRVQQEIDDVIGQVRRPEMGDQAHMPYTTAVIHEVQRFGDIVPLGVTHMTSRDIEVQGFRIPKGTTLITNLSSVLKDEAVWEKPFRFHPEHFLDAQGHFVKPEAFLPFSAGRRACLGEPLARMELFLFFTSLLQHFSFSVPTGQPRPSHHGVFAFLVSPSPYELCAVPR
CYP2C19, sequence (P33261 whole entry): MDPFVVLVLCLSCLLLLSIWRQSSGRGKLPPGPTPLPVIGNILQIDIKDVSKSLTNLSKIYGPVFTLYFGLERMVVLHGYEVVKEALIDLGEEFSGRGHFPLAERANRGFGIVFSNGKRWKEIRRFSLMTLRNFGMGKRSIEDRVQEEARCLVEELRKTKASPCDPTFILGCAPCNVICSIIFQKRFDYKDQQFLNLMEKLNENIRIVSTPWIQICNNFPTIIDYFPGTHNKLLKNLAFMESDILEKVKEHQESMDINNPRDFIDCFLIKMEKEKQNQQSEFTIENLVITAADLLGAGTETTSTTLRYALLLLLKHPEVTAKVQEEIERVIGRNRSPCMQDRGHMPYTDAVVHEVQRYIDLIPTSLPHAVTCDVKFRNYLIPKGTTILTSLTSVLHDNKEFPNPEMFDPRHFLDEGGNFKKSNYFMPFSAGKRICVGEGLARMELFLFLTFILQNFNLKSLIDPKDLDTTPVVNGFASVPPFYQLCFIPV
CYP1A2, sequence (P05177 whole entry): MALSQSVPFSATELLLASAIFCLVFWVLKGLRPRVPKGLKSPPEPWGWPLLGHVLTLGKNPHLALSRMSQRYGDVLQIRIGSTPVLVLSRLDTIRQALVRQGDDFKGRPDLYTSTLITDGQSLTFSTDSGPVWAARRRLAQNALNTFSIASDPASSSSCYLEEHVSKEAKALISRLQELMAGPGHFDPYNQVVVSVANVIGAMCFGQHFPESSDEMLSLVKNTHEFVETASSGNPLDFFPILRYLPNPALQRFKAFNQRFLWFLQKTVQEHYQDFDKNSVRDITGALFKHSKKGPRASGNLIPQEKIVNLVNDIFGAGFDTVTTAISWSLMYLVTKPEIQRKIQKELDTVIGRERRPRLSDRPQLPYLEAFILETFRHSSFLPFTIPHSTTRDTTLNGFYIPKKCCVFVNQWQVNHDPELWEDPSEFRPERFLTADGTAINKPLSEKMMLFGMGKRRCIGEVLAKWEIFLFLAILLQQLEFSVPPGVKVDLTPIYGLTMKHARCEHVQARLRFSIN
CYP3A4, sequence (P08684 whole entry): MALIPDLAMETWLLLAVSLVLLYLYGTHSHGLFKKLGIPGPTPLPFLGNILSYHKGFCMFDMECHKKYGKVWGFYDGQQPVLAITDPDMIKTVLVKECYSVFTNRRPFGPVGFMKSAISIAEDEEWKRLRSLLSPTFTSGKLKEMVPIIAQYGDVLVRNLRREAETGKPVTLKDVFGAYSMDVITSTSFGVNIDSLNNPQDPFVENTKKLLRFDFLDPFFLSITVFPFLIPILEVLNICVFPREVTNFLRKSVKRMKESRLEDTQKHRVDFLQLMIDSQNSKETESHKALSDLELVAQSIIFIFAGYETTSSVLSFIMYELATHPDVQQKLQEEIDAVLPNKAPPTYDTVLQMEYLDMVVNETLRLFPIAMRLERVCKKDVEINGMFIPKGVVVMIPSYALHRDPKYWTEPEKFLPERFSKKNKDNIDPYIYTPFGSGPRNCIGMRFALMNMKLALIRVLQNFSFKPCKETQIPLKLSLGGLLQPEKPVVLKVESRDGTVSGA
CYP3A4 enzyme expressed in Escherichia coli, sequence (P08684 whole entry): as above

| SMILES | IC50 [1] [nM] | IC50 [2, 14] [nM] | IC50 [2, 15] [nM] | Ki [3, 16] [nM] | Ki [3] [nM] | IC50 [4] [nM] | IC50 [5] [nM] | solubility at 16 h [6] [µM] | remaining rate after reaction (result heading prints '% inhibition') [7] [%] | IC50 [8] [nM] | IC50 [9] [nM] | IC50 [10] [nM] | IC50 [11] [nM] | IC50 [12] [nM] | difference in IC50 with vs without preincubation [13] [nM] |
| --- | --- | --- | --- | --- | --- | --- | --- | --- | --- | --- | --- | --- | --- | --- | --- |
| CC(C)Oc1ccc(S(=O)(=O)N2C[C@H](n3nc(CC(=O)O)c4ccc(F)cc43)[C@@](C)(F)C2)cc1 (racemic) [Compound I-85] | 210 | 19 | < 100 | < 100 | 2.8 | 140 | 33 | > 50 |  |  |  |  |  |  |  |
| CC(C)Oc1ccc(S(=O)(=O)N2C[C@@H](N3CCCC3)[C@@H](n3nc(CC(=O)O)c4ccc(F)cc43)C2)cc1 [Compound I-47] |  |  | 100 to 5000 | < 100 | 16 |  |  |  | 91.8 |  |  |  |  |  |  |
| C[C@@H]1CN(S(=O)(=O)c2ccc(Cl)cc2)C[C@@H]1n1nc(CC(=O)O)c2ccc(F)cc21 [Compound I-49] |  |  | 100 to 5000 | < 100 | 0.59 | 86 |  | > 50 | 94.7 | > 20000 | > 20000 | > 20000 | > 20000 | > 20000 |  |
| CC(C)Oc1ccc(S(=O)(=O)N2CC[C@H](n3nc(CC(=O)O)c4ccc(F)cc43)[C@@H](C)C2)cc1 [Compound I-74] |  |  | < 100 | 100 to 5000 | 680 |  |  | > 50 |  | > 20000 | > 20000 | > 20000 | > 20000 | > 20000 |  |
| CC(C)Oc1ccc(S(=O)(=O)N2CC[C@H](n3nc(CC(=O)O)c4ccc(F)cc43)[C@H](C)C2)cc1 [Compound I-75] |  |  | < 100 | 100 to 5000 |  |  |  |  | 99.2 |  |  |  |  |  | ≤ 3000 |
| CC(C)Oc1ccc(S(=O)(=O)N2C[C@@H](C)[C@@H](n3nc(CC(=O)O)c4ccc(C(F)(F)F)cc43)C2)cc1 [Compound I-130] | 240 | 10 | < 100 | < 100 | 4.7 | 73 | 46 |  |  |  |  |  |  |  |  |
